{"source": "patent US11774460B2", "about": "“Diagnostic or predictor of relapsing remitting multiple sclerosis” (Dignity Health, priority 2016, dated 2023)", "system": "Factor VIII activity", "assay": "Factor VIII activity in blood of multiple sclerosis patients under treatment", "format": "in vivo, human", "conditions": "MS patient with elevated Factor VIII activity during exacerbation", "description": "In various embodiments, disclosed herein is a method of detecting or predicting a relapse of multiple sclerosis in an individual afflicted with a form of multiple sclerosis, comprising: (a) providing a blood sample of the individual; (b) testing the blood sample to determine a protein activity or protein level, wherein the protein is Factor VIII, von Willebrand factor, or Protein C; and (c) detecting a relapse of multiple sclerosis in the individual if the protein activity or protein level is elevated compared to the protein activity or protein level in an individual not afflicted with the form of multiple sclerosis or the patient's own lowest baseline value as a form of a control. In some of these embodiments, the form of multiple sclerosis is relapsing-remitting multiple sclerosis with or without secondary progression. In some embodiments, the multiple sclerosis in the individual is in remission. In some embodiments, the blood sample test to determine the protein activity or protein level is performed simultaneously with other blood tests, such as, partial thromboplastin time (PTT) test, International Normalized Ratio (INR) test, and erythrocyte sedimentation rate (ESR) test. In some of these embodiments, the blood sample tests are performed at least once per month during the treatment period and/or monitoring period of multiple sclerosis. […]", "data": [{"substance": "TYSABRI: disease-modifying therapy for multiple sclerosis named only by trade name", "values": [{"measurement": "Factor VIII activity after treatment", "result": "returned to normal"}]}]}
